Measurements: patent publication US9956199B2, “Chromane-like cyclic prenylflavonoids for the medical intervention in neurological disorders” (priority 2011, dated 2018)
Entries after “also recorded” stand apart in the source; their conditions may differ.

Tests used:
[1] = tested on: promoter of the neuronal precursor specific gene doublecortin (DCX); experiment: DCX promoter firefly-luciferase assay in primary fetal mouse brain derived (MEF) cells; format: cell-based; conditions: for effect on DCX promoter induction: 10 μM, MEF cells, three days; for stimulatory effect on the DCX promoter activity (FF/R relative to control): DCX promoter-luciferase transfected MEF cells, stimulated three days
Method: Primary mouse embryonic day 16 forebrain (MEF) cultures were prepared as follows. Pregnant NMRI mice (Charles River Laboratories, Sulzfeld, Germany) were sacrificed and the uteri promptly removed and immersed in ice-cold Dulbecco's phosphate buffered saline solution—DPBS (PAA, Pasching, Austria). Eight embryonic day (E) 16 embryos were released from the uteri; forebrains were taken out, separated from surrounding tissues and mechanically dissociated using a razor blade. Subsequently the dissociated cells were collected by 5 min centrifugation at 120×g. The pellet was resuspended in 10 ml PPD-solution containing 0.01% papain (Worthington, England), 0.1% Dispasell (Roche, Basel, Switzerland), 0.01% DNasel (Worthington, England), 12.4 mM MgSO4 dissolved in HBSS w/o Ca/Mg (PAA, Pasching, Austria). The cell suspension was incubated at 37° C. and triturated every ten minutes for three times. The cell suspension was then centrifuged at 120×g for 5 minutes and washed three times in Neurobasal medium (Gibco BRL, Germany) supplemented with 2% (v/v) B27 (Gibco BRL, Karlsruhe), 2 mM L-glutamine, 100 μg/ml Penicillin/Streptomycin (PAN Biotech GmbH, Aidenbach, Germany). Finally, the cell preparation was resuspended in 12 ml Neurobasal medium supplemented with B27 (Gibco BRL, Karlsruhe), 2 mM L-glutamine, 100 μg/ml Penicillin/Streptomycin (PAN Biotech GmbH, Aidenbach, Germany), 20 ng/ml Epidermal Growth Factor—rhEGF, 20 ng/ml Fibroblast Growth Factor—rhFGF (R&D Systems, Wiesbaden-Nordenstadt, Germany) and 2 μg/ml Heparin (Sigma-Aldrich, Taufkirchen, Germany) (NB plus all), seeded in one T75 flask (TPP, Switzerland) and maintained in a humidified atmosphere at 37° C. and 5% CO2. […] On this day (day 2), half of the medium was refreshed and on day 4 cells were passaged. To passage the cells, the culture medium containing the floating neurospheres was collected in a 15 ml tube (Corning, Lowell, USA) and centrifuged at 120×g for 5 min. For dissociation, the pellet was resuspended in 500 μl Accutase (PAA, Pasching, Austria) and triturated using a 1 ml pipette. The cell suspension was incubated at 37° C. for 10 min, and then, 10 ml media were added. Cell number was determined by Trypan blue exclusion.
Luciferase assays were performed using a noncommercial dual luciferase enzyme assay system (Dyer et al., 2000, Anal Biochem). In this system, a co-transfection with pDCX-Luci and a control vector driving Renilla-luciferase under the CMV promoter was performed. The two different luciferases have different specific substrates and, therefore, the DCX regulatory region driven firefly luciferase activity can be distinguished from CMV driven Renilla-luciferase. For analysis, the firefly luciferase activity was normalized against the CMV driven Renilla-luciferase. For each transfection reaction, a volume containing two million cells was transferred into a 15 ml tube (Corning, Lowell, USA), centrifuged at 120×g for 5 min to pellet the cells and resuspended in 100 μl Amaxa Mouse Neural Stem Cell Nucleofector Kit (Lonza, Kln, Germany). Then, pDCX-Luci (Karl, 2005) and pRL3 (Promega, Mannheim, Germany) (5 μg each) were added and the entire reaction mix was transferred into an Amaxa transfection cuvette. Transfection was done using the A-033 program in the Amaxa Nucleofector II (Lonza, Kln, Germany). Transfected cells were then pipetted into 20 ml of DMEM knockout medium (Gibco BRL, Germany) containing 20% serum replacement supplement (PAN Biotech GmbH, Aidenbach, Germany), 2 mM L-glutamine (PAN Biotech GmbH, Aidenbach, Germany) and 100 μg/ml Penicillin/Streptomycin (PAN Biotech GmbH, Aidenbach, Germany) (DMEM-KO plus supplements) in a 50 ml tube (Corning, Lowell, USA). From this resulting cell suspension, 200 μl per well were plated in Poly-Ornithine/Laminin coated 96-well-luciferase plates (Wimmer & Macho, Wels, Austria) in a cell density of 20.000 cells per well, as described herein below.

PC12 cells = experiment: PC12 cobalt-chloride stress test, Caspase 3/7 activation; format: cell-based, rat; conditions: CoCl2 300 μM, 24 hours; compounds 10 μM, NGF 50 ng/ml; FIG. 7A
Method: For the neuroprotection assay PC12 cells were stressed with cobalt chloride 300 μM for 24 hours and the activity of Caspase 3/7 and LDH release were measured. NGF 50 ng/ml was used as a positive control for Caspase 3/7 activity and NGF 100 ng/ml was used as a positive control for LDH release.
For the PC12-CoCl2-Assay PC12 cells were used (ATCC: CRL-1721 ™). These cells were growing in RPMI supplemented with 10% Horse Serum (heat inactivated) (Sigma Aldrich, Taufkirchen, Germany), 5% Fetal Bovine Serum (Lonza, Wuppertal, Germany), 2.5% Penicillin/Streptomycin and Glutamine (PAA, Pasching, Austria) as adherent cultures when the plates are coated with Poly-L-ornithine ([…] in water) for at least one hour at 37° C. For passaging PC12-cells were resuspended with Accutase (PAA, Pasching, Austria) for 10 minutes at 37° C. once a week.
For all experiments cells were plated (quadruplicates) on Poly-L-ornithine-coated 96-well plates at a density of 10^4 cells per well. For Caspase 3/7-measurement cells were seeded in a white 96-well-plate to detect luminescence. As positive-control for neuroprotection Nerve Growth Factor (NGF) (50 ng/ml and 100 ng/ml) was used. To induce hypoxia CoCl2 (300 μM) was added to the cells after 20-24 hours. The control-treatment was compound 1a (ENDF1), compound 1b (ENDF3), compound 3a (ENDF2), ENDF4 or Osajin in the concentrations 1 μM and 10 μM in proliferation-media without CoCl2.
For Caspase 3/7-activation Caspase 3/7 substrate was added to the cells in an equal amount 22 hours after stimulation. Plates are incubated for 2 hours at room temperature in the dark, luminescence was measured 24 hours after stimulation and the blank-values are subtracted.

Row | Compound | effect on DCX promoter induction [1] | stimulatory effect on the DCX promoter activity (FF/R relative to control) [1] | protection from CoCl2 induced Caspase 3/7 activity (PC12 cells)
1 | COc1cc2c(c(O)c1C(=O)/C=C/c1ccc(O)cc1)C=CC(C)(C)O2 [Compound 1a, (E)-1-(5-hydroxy-7-methoxy-2,2-dimethyl-2H-chromen-6-yl)-3-(4-hydroxyphenyl)prop-2-en-1-one] | significantly higher than those exerted by the reference compounds | significantly and strongly induce; also recorded: very strong and significant stimulatory effect | partially protected; also recorded: significant neuroprotective effect similar to NGF
2 | COc1cc2c(c(O)c1C(=O)/C=C/c1ccc(O)cc1)CCC(C)(C)O2 [Compound 1b, (E)-1-(5-hydroxy-7-methoxy-2,2-dimethylchroman-6-yl)-3-(4-hydroxyphenyl)prop-2-en-1-one] | significantly higher than those exerted by the reference compounds | significantly and strongly induce; also recorded: very strong and significant stimulatory effect | partially protected; also recorded: significant neuroprotective effect similar to NGF
